For the experiment, the target named is T1, human GnRH receptor (Homo sapiens, UniProt P30968).
T1 construct: expressed in transfected cells; host or cells: HEK 293 (hGnRH-R/293, from Dr. Stuart Sealfon)
T1 sequence (P30968 1-328): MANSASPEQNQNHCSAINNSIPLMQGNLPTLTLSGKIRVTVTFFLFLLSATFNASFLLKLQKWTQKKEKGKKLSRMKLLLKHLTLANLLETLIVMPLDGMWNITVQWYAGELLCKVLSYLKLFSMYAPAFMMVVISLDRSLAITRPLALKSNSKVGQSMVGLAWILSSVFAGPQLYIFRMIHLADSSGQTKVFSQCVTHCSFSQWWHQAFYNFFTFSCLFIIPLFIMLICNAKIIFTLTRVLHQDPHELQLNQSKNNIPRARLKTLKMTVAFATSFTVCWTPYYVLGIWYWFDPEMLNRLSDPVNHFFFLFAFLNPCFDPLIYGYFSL
In words: Radioligand binding, 125I-GnRH-A displacement, membranes of HEK 293 cells with human GnRH receptor. The settings on record: for IC50: read-out: hGnRH IC50. As to the method:
All compounds were diluted in 1% DMSO (final assay concentration) in binding assay buffer. […] Reactions were terminated by rapid filtration onto 96-well Packard GF/C filters soaked in 0.1% polyethyleneimine. Filters were washed three times with PBS buffer, dried and counted on a Packard Topcount by liquid scintillation counting.
Assay conditions were identical for assessing compound activities at other species. […] IC50 values for control peptides and test compounds were calculated utilizing GraphPad Prism™ software.
Crude compounds were tested using the competitive radioligand binding assay described above.
The reaction mixture was vortexed and incubated for 1 min at room temperature. After one min, the mixture was vortexed and allowed to incubate for an additional minute. 2 ml of 0.5 M acetic acid/1% BSA was added to the reaction tube and the mixture was added to a C18 Sep-Pak cartridge. The cartridge was washed with subsequent washes of 5 ml H2O and 5 ml 0.5M acetic acid and then eluted with 5×1 ml of 60% CH3CN/40% 0.5M acetic acid. The eluate was diluted with 3× volume of HPLC buffer A (0.1% TFA in H2O) and loaded onto a C18 column. The iodinated product was eluted over 20-25 min with a gradient of 25-100% CH3CN containing 0.1% TFA. The radioactive fractions (750 ed/fraction) are collected into clean polypropylene tubes containing 100 μl of 10% BSA. Fractions were assessed for biological activity by radioligand binding.
S%R is the substrate remaining.

Where [1] appears, read: 1 uM, read-out: % Inhib. @ 1 uM hGnRH.
The mark [2] stands for this setting: 1 h, repeat of % Inhib. at 1 uM, read-out: Repeats @ 1 uM hGnRH.
[3] abbreviates: repeat, read-out: Repeats @ 10 uM hGnRH (% inhib.).
Setting [4] is: read-out: % inhib. @ 10 uM hGnRH.

Structures are written as SMILES. Like-named read-outs stand apart in the source and are kept apart here. A value given as a limit tells only on which side of the number the result lay.

Take `CCc1ccc(CCNC(=O)c2ccc(Cc3cc4c(cc3C)C(C)(C)CCC4(C)C)o2)cc1`: the inhibition at 1 µM worked out at 29% under setting [1] and 32% under setting [2].

Take `Cc1cc2c(cc1Cc1ccc(C(=O)NC(C)c3ccc(F)cc3)o1)C(C)(C)CCC2(C)C` (centres unmarked): the inhibition at 1 µM under setting [1] stood at 28% and the inhibition at 1 µM under setting [2] is 35%.

Take `Cc1cc2c(cc1Cc1ccc(C(=O)NC(C)c3ccc(Cl)cc3)o1)C(C)(C)CCC2(C)C` (centres unmarked): the inhibition at 1 µM by setting is: under setting [1], 20%; under setting [2], 28%.

Regarding `COc1ccc(CCN(C)C(=O)c2ccc(Cc3cc4c(cc3C)C(C)(C)CCC4(C)C)o2)cc1OC`, the inhibition at 1 µM under setting [1] was found to be 13% and the inhibition at 1 µM under setting [2] turned out to be 7%.

In the case of `Cc1cc2c(cc1Cc1ccc(C(=O)NCCSCc3c(Cl)cccc3Cl)o1)C(C)(C)CCC2(C)C`, the inhibition at 1 µM by setting is: under setting [1], 14%; under setting [2], 20%.

`Cc1cc2c(cc1Cc1ccc(C(=O)N(C)Cc3ccccc3Cl)o1)C(C)(C)CCC2(C)C`: the inhibition at 1 µM runs as follows: under setting [1], 14%; under setting [2], 21%.

Take `Cc1cc2c(cc1Cc1ccc(C(=O)N3CCN(c4ccc(C(F)(F)F)cc4)CC3)o1)C(C)(C)CCC2(C)C`: the inhibition at 1 µM runs as follows: under setting [1], -12%; under setting [2], 1%.

As for `Cc1cc2c(cc1Cc1ccc(C(=O)NC(C)(C)Cc3ccccc3)o1)C(C)(C)CCC2(C)C`, the inhibition at 1 µM under setting [1] was found to be 38% and the inhibition at 1 µM under setting [2] was determined as 39%.

For `Cc1cc2c(cc1Cc1ccc(C(=O)N(C)C(C)Cc3ccccc3)o1)C(C)(C)CCC2(C)C` (centres unmarked), the inhibition at 1 µM runs as follows: under setting [1], 15%; under setting [2], 17%.

Regarding `Cc1cc2c(cc1Cc1ccc(C(=O)NC(C)(C)Cc3ccc(F)cc3)o1)C(C)(C)CCC2(C)C`, the inhibition at 1 µM under setting [1] came to 21% and the inhibition at 1 µM under setting [2] stood at 22%.

Turning to `Cc1cc2c(cc1Cc1ccc(C(=O)NC(C)(C)c3ccccc3)o1)C(C)(C)CCC2(C)C`, the inhibition at 1 µM by setting is: under setting [1], 28%; under setting [2], 45%.

As to `Cc1cc2c(cc1Cc1ccc(C(=O)N(C)CC(O)c3ccccc3)o1)C(C)(C)CCC2(C)C` (centres unmarked), the inhibition at 1 µM stood at 20% under setting [1] and 22% under setting [2].

Consider `Cc1cc2c(cc1Cc1ccc(C(=O)NC(CO)CSCc3ccccc3)o1)C(C)(C)CCC2(C)C` (centres unmarked), for which the inhibition at 1 µM is 16% under setting [1] and 7% under setting [2].

For the compound `Cc1cc2c(cc1Cc1ccc(C(=O)N(C)CC(O)c3cccc(O)c3)o1)C(C)(C)CCC2(C)C` (centres unmarked), the inhibition at 1 µM is, setting by setting: under setting [1], -2%; under setting [2], 9%.

Regarding `Cc1cc2c(cc1Cc1ccc(C(=O)NC(C#N)c3ccc(F)cc3)o1)C(C)(C)CCC2(C)C` (centres unmarked), the inhibition at 1 µM is, setting by setting: under setting [1], 2%; under setting [2], 4%.

For the compound `Cc1cc2c(cc1Cc1ccc(C(=O)NCc3ccc(F)cc3Cl)o1)C(C)(C)CCC2(C)C`, the inhibition at 1 µM reads like this: under setting [1], 27%; under setting [2], 48%.

Consider `Cc1cc2c(cc1Cc1ccc(C(=O)NCC(O)c3ccc(O)c(O)c3)o1)C(C)(C)CCC2(C)C` (centres unmarked), for which the inhibition at 1 µM reads like this: under setting [1], -26%; under setting [2], 11%.

As to `Cc1cc2c(cc1Cc1ccc(C(=O)NC(CCO)c3ccccc3)o1)C(C)(C)CCC2(C)C` (centres unmarked), the inhibition at 1 µM reads like this: under setting [1], 17%; under setting [2], 23%.

`Cc1cc2c(cc1Cc1ccc(C(=O)N3CCN(c4cccc(O)c4)CC3)o1)C(C)(C)CCC2(C)C`: the inhibition at 1 µM is -1% under setting [1] and -3% under setting [2].

`CCN(CCc1ccccn1)C(=O)c1ccc(Cc2cc3c(cc2C)C(C)(C)CCC3(C)C)o1`: the inhibition at 1 µM runs as follows: under setting [1], 12%; under setting [2], 8%.

Take `Cc1cc2c(cc1Cc1ccc(C(=O)NC(c3ccccc3)c3ccc(Cl)cc3)o1)C(C)(C)CCC2(C)C` (centres unmarked): the inhibition at 1 µM under setting [1] is -8% and the inhibition at 1 µM under setting [2] was determined as 3%.

On to `Cc1cc2c(cc1Cc1ccc(C(=O)NCc3c(CO)cnc(C)c3O)o1)C(C)(C)CCC2(C)C`, for which the inhibition at 1 µM under setting [1] was -2% and the inhibition at 1 µM under setting [2] is 6%.

Consider `Cc1cc2c(cc1Cc1ccc(C(=O)NCC(C)(c3ccccc3)c3ccccc3)o1)C(C)(C)CCC2(C)C`, for which the inhibition at 1 µM under setting [1] was found to be 16% and the inhibition at 1 µM under setting [2] stood at 22%.

For the compound `Cc1cc2c(cc1Cc1ccc(C(=O)NCCc3ccc(O)c(O)c3)o1)C(C)(C)CCC2(C)C`, the inhibition at 1 µM runs as follows: under setting [1], -10%; under setting [2], -3%.

Take `COc1ccc(OC)c(C(O)C(C)NC(=O)c2ccc(Cc3cc4c(cc3C)C(C)(C)CCC4(C)C)o2)c1` (centres unmarked): the inhibition at 1 µM reads like this: under setting [1], -6%; under setting [2], 14%.

Turning to `Cc1cc2c(cc1Cc1ccc(C(=O)N[C@@H](CO)Cc3c[nH]cn3)o1)C(C)(C)CCC2(C)C`, the inhibition at 1 µM is -17% under setting [1] and -27% under setting [2].

For `Cc1cc2c(cc1Cc1ccc(C(=O)N3CCc4cc(O)c(O)cc4C3C)o1)C(C)(C)CCC2(C)C` (centres unmarked), the inhibition at 1 µM by setting is: under setting [1], -13%; under setting [2], -5%.

Turning to `Cc1cc2c(cc1Cc1ccc(C(=O)NC(CO)[C@H](O)c3ccc([N+](=O)[O-])cc3)o1)C(C)(C)CCC2(C)C` (some centres unmarked), the inhibition at 1 µM runs as follows: under setting [1], -10%; under setting [2], -15%.

In the case of `Cc1cc2c(cc1Cc1ccc(C(=O)N(C)C(C)C(O)c3ccc(O)cc3)o1)C(C)(C)CCC2(C)C` (centres unmarked), the inhibition at 1 µM under setting [1] was -10% and the inhibition at 1 µM under setting [2] is -13%.

As for `Cc1cc2c(cc1Cc1ccc(C(=O)NC(C)C(O)c3ccccc3)o1)C(C)(C)CCC2(C)C` (centres unmarked), the inhibition at 1 µM under setting [1] was 12% and the inhibition at 1 µM under setting [2] came to 14%.

Consider `Cc1cc2c(cc1Cc1ccc(C(=O)N[C@H](C)[C@H](O)c3ccc(O)cc3)o1)C(C)(C)CCC2(C)C`, for which the inhibition at 1 µM under setting [1] is -2% and the inhibition at 1 µM under setting [2] stood at 6%.

On to `Cc1cc2c(cc1Cc1ccc(C(=O)NCC(O)c3ccc(O)cc3)o1)C(C)(C)CCC2(C)C` (centres unmarked), for which the inhibition at 1 µM came to 25% under setting [1] and 28% under setting [2].

Take `Cc1cc2c(cc1Cc1ccc(C(=O)N[C@@H](CO)Cc3ccc(O)cc3)o1)C(C)(C)CCC2(C)C`: the inhibition at 1 µM under setting [1] was -12% and the inhibition at 1 µM under setting [2] is -9%.

`Cc1cc2c(cc1Cc1ccc(C(=O)Nn3c(O)nnc3-c3ccccc3)o1)C(C)(C)CCC2(C)C`: the inhibition at 10 µM runs as follows: under setting [3], -25%; under setting [4], -25%.

Consider `Cc1cc2c(cc1Cc1ccc(C(=O)NN3C(=O)c4ccccc4C3=O)o1)C(C)(C)CCC2(C)C`, for which the inhibition at 10 µM under setting [3] was -20% and the inhibition at 10 µM under setting [4] is -15%.

Consider `Cc1cc2c(cc1Cc1ccc(C(=O)Nn3c(O)nnc3-c3ccncc3)o1)C(C)(C)CCC2(C)C`, for which the inhibition at 10 µM reads like this: under setting [3], -28%; under setting [4], -17%.

Take `Cc1ccc2nc(C)n(NC(=O)c3ccc(Cc4cc5c(cc4C)C(C)(C)CCC5(C)C)o3)c(=O)c2c1`: the inhibition at 10 µM under setting [3] was -4% and the inhibition at 10 µM under setting [4] is -4%.

For `Cc1cc2c(cc1Cc1ccc(C(=O)Nn3c(N)nc(C(F)(F)F)cc3=O)o1)C(C)(C)CCC2(C)C`, the inhibition at 10 µM is -5% under setting [3] and -10% under setting [4].

Turning to `COc1cc(OC)c(NC(=O)c2ccc(C(O)c3cc4c(cc3C)C(C)(C)CCC4(C)C)o2)c(OC)c1` (centres unmarked) [AXC- 07047], the IC50 was 1.41 µM.

`COc1cc(C)c(Cl)c(C)c1Cc1ccc(C(N)=O)o1` [AXC- 07450]: the IC50 was greater than 10 µM.

As to `CCN(CC)S(=O)(=O)c1ccc(OC)c(NC(=O)c2ccc(Cc3cc4c(cc3C)C(C)(C)CCC4(C)C)o2)c1` [Compound 26], the IC50 is 1.01 µM.

As for `Cc1cc2c(cc1Cc1ccc(C(=O)NCCCNC(=O)c3ccc(Cc4cc5c(cc4C)C(C)(C)CCC5(C)C)o3)o1)C(C)(C)C=CC2(C)C` [Compound 27], the IC50 is greater than 10 µM.

For the compound `Cc1cc2c(cc1Cc1ccc(C(=O)NCCCCCCNC(=O)c3ccc(Cc4cc5c(cc4C)C(C)(C)CCC5(C)C)o3)o1)C(C)(C)CCC2(C)C` [Compound 28], the IC50 is greater than 10 µM.

`Cc1cc2c(cc1Cc1ccc(C(=O)Nc3ccc(S(=O)(=O)Nc4nccs4)cc3)o1)C(C)(C)CCC2(C)C` [Compound 29]: the IC50 came to 1.42 µM.

For `Cc1cc2c(cc1Cc1ccc(C(=O)N3CCN(c4ncccn4)CC3)o1)C(C)(C)CCC2(C)C` [Compound 30.5], the IC50 was 5.03 µM.

For `Cc1cc2c(cc1Cc1ccc(C(=O)Nc3ccc(N4CCOCC4)cc3)o1)C(C)(C)CCC2(C)C` [Compound 30], the IC50 turned out to be 1.35 µM.

As for `CCOC(=O)Cc1ccc(NC(=O)c2ccc(Cc3cc4c(cc3C)C(C)(C)CCC4(C)C)o2)cc1` [Compound 32], the half-inhibitory concentration (IC50) turned out to be 3.8 µM.

On to `Cc1cc2c(cc1Cc1ccc(C(=O)Nc3ccc(CC(=O)O)cc3)o1)C(C)(C)CCC2(C)C` [Compound 33], for which the half-maximal inhibitory concentration (IC50) amounted to 5.3 µM.

Values taken from patent US7101878B1 (Agouron Pharmaceuticals, Inc., priority 1998, dated 2006).
